From patent US6756509B2, “Method for purifying crude 2,6-naphthalenedicarboxylic acid” (Kobe Steel, Ltd., priority 2001, dated 2004)

How the values were obtained:
[1] = solubility in alcohol at room temperature
[2] = solubility in water at room temperature; assay type: physicochemical
Description: Preferably, the reduction reaction is performed at a temperature in the range of 280 to 350° C. […] In addition, in order to maintain the liquid phase at a high temperature in the range described above, the pressure must be the saturated vapor pressure or higher (150 to 250 atm). Fortunately, using hydrogen dissolved in water prevents the equipment from deteriorating. Specifically, if hydrogen gas is supplied to a water medium containing 2,6-NDA, the hydrogen gas is used at such a high temperature and high pressure, consequently making the reactor brittle. In order to prevent the embrittlement, pressure-resistant equipment, which is expensive, is required.

| solubility in alcohols ([1]; any alcohols) | solubility in water [2] | amount that dissolves in ethanol ([1]; ethanol) | Compound |
| --- | --- | --- | --- |
| hardly dissolves | slightly soluble or insoluble | – | O=C(O)c1ccc2cc(C(=O)O)ccc2c1 [2,6-NDA, 2,6-naphthalenedicarboxylic acid] |
| – | – | 10 mass % | O=C(O)c1ccc2ccccc2c1 [2-NA, 2-naphthoic acid] |
